In ChEMBL document CHEMBL5321290, “Discovery of the Diphenyl 6-Oxo-1,6-dihydropyridazine-3-carboxylate/carboxamide Analogue J27 for the Treatment of Acute Lung Injury and Sepsis by Targeting JNK2 and Inhibiting the JNK2-NF-κB/MAPK Pathway” (J Med Chem, 2023):
The source made the active and inactive calls. No cut-off for these calls is given here.

How the values were obtained:
[1] = molecular target: T1, Inhibitor of nuclear factor kappa-B kinase subunit beta (Homo sapiens) (UniProt O14920); experiment: Inhibition of IKKbeta (unknown origin) assessed as inhibition rate at 10 uM by SPR analysis relative to control
T1 sequence (whole entry): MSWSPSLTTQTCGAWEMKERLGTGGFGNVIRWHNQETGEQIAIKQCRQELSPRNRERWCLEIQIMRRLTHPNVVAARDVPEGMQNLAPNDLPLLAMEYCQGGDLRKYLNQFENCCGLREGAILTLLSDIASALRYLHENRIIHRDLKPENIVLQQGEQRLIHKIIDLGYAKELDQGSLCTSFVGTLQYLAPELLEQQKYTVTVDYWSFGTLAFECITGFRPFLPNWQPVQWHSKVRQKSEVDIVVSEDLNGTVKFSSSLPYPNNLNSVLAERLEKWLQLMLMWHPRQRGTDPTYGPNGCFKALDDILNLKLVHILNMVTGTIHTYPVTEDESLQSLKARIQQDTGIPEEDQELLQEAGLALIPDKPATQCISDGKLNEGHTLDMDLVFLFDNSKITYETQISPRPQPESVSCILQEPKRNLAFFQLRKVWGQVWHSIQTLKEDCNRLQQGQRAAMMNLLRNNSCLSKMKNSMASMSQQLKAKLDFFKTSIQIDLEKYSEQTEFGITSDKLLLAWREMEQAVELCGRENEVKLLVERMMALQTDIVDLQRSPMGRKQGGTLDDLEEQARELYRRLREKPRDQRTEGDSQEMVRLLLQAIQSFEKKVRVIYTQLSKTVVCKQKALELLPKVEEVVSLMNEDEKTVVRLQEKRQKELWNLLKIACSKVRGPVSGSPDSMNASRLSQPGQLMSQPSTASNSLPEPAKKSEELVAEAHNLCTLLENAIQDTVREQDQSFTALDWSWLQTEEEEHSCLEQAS

[2] = molecular target: c-Jun N-terminal kinase (Mus musculus) (UniProt Q91Y86+Q9WTU6+Q61831); experiment: Inhibition of JNK phosphorylation in mouse J774A.1 cells assessed as decrease in LPS-stimulated JNK phosphorylation level pretreated at 10 uM for 1 hrs followed by induced with LPS for 40 mins by Western blot analysis; type: cell-based; conditions: J774.1, time 100.0 min
Mus musculus [3] = experiment: Antiinflammatory activity against LPS-induced acute lung injury C57 mouse model assessed as decrease in LPS-induced TNFalpha level in serum at 20 to 40 mg/kg, po thrice at 12 hrs interval followed 30 mins treated with LPS by ELISA; type: functional, organism-based; conditions: dose 20-40 mg/kg, time 36.5 hrs
[4] = Cmax in Sprague-Dawley rat at 10 mg/kg, po measured upto 24 hrs by UPLC-MS/MS analysis; type: ADME, organism-based; parameters: time < 24 hrs, dose 10 mg/kg, route po; conditions: in vivo
Mus musculus [5] = experiment: Antiinflammatory activity against LPS-induced acute lung injury C57 mouse model assessed as decrease in LPS-induced IL-6level in blood at 20 mg/kg, po thrice at 12 hrs interval; type: functional, organism-based
Mus musculus [6] = experiment: Antiinflammatory activity against LPS-induced septic shock mouse model assessed as improvement in survival at 20 mg/kg, po pretreated 1 hr before LPS administration measured upto 96 hrs; type: functional, organism-based; conditions: time <= 97.0 hrs
Mus musculus [7] = experiment: Antiinflammatory activity against LPS-induced acute lung injury C57 mouse model assessed as decrease in LPS-induced total cell count in broncho alveolar lavage fluid at 20 mg/kg, po thrice at 12 hrs interval; type: functional, organism-based; conditions: Bronchoalveolar lavage

Chain of c-Jun N-terminal kinase (Mus musculus) (Q61831 whole entry, looked up): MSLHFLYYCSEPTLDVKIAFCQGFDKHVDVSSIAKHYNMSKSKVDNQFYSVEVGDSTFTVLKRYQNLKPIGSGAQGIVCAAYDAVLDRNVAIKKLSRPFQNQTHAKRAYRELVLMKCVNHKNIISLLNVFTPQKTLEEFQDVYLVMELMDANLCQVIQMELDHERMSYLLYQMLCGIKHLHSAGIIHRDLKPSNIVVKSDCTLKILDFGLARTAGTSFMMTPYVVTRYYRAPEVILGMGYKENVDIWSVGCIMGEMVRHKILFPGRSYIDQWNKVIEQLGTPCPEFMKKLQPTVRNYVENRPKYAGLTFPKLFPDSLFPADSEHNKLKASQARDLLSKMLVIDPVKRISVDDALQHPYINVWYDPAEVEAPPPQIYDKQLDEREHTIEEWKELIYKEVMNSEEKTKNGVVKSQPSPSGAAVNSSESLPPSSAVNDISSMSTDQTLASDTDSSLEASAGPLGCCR
Chain of c-Jun N-terminal kinase (Mus musculus) (Q91Y86 whole entry, looked up): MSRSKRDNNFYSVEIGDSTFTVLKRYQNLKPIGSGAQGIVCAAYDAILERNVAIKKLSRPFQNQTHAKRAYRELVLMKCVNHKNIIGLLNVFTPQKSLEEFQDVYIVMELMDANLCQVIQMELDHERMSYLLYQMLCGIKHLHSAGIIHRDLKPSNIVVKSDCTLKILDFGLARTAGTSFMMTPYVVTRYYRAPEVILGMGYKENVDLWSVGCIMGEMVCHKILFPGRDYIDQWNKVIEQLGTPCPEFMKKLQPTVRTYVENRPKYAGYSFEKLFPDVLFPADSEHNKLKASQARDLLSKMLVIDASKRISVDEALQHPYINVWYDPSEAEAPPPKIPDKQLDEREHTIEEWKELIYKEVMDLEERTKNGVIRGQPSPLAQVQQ
Chain of c-Jun N-terminal kinase (Mus musculus) (Q9WTU6 whole entry, looked up): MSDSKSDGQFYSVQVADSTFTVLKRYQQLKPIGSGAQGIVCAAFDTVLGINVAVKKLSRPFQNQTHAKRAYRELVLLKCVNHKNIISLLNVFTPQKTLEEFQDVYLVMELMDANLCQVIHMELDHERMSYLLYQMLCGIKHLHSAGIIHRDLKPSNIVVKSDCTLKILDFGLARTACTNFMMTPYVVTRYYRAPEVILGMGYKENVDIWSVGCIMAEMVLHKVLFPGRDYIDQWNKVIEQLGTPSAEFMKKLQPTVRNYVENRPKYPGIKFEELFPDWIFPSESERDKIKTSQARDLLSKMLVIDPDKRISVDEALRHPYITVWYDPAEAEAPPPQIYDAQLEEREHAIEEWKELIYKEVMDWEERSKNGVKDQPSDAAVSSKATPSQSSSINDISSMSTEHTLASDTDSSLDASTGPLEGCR

For COc1cc2nccc(Oc3ccc(NC(=O)c4nn(-c5ccc(C)cc5)c(=O)cc4C)cc3)c2cc1OC, the inhibition [1] was -3.77%, the inhibition [2] was “Active” and the Activity (Mus musculus [3]) was “Active”. The Cmax [4] was 1.87 µg/mL, the Activity (Mus musculus [5]) was “Active” and the Activity (Mus musculus [6]) was “Active”. For the same compound, the Activity (Mus musculus [7]) was “inactive”.
